{
  "source": "PubChem BioAssay AID1259411",
  "about": "(Chemical Carcinogenesis Research Information System (CCRIS), 2018)",
  "tested_on": "rodent carcinogenicity bioassays, tumor incidence",
  "assay": "CCRIS carcinogenicity studies",
  "method_in_brief": "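Archive of carcinogenicity, mutagenicity, tumor promotion and tumor inhibition results drawn from journals, NCI reports and other sources, expert-reviewed; covers 1985-2011 and is no longer updated.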",
  "note": "Activity calls are given as the source filed them. No rule for the calls is given here.",
  "data": [
    {"smiles": "COc1ccc(-c2ccccc2)cc1NNC(=O)OC(C)C", "values": [
      {"measurement": "carcinogen call", "setting": "Species: Mouse, Strain/Sex: B6C3F1/Female (50/group), Route: Oral, Dose: 0, 10, 100, 175 ppm in diet for 78 wks, Dose: 0, 10, 100, 175 ppm in diet for 78 wks", "value": "inactive; negative; purity 92.5%"},
      {"measurement": "carcinogen call", "setting": "Species: Rat, Strain/Sex: Sprague-Dawley/Female (60/group), Route: Oral, Dose: 0, 20, 80, 160 ppm in diet for 104 wks, Dose: 0, 20, 80, 160 ppm in diet for 104 wks", "value": "inactive; negative; purity 92.5%"},
      {"measurement": "carcinogen call", "setting": "Species: Rat, Strain/Sex: Sprague-Dawley/Male (60/group), Route: Oral, Dose: 0, 20, 80, 200 ppm in diet for 104 wks, Dose: 0, 20, 80, 200 ppm in diet for 104 wks", "value": "inactive; negative; purity 92.5%"}
    ]},
    {"smiles": "ClC(Cl)=C(c1ccc(Cl)cc1)c1ccc(Cl)cc1", "values": [
      {"measurement": "carcinogen call", "setting": "Species: MOUSE, Strain/Sex: B6C3F1/FEMALE, Route: ORAL, Dose: 0, 148, 261 PPM IN DIET, TWA, Dose: 0, 148, 261 PPM IN DIET, TWA, Tumor Site: Type of Lesion: LIVER: HEPATOCELLULAR CARCINOMA", "value": "active; positive"},
      {"measurement": "carcinogen call", "setting": "Species: MOUSE, Strain/Sex: B6C3F1/MALE, Route: ORAL, Dose: 0, 148, 261 PPM IN DIET, TWA, Dose: 0, 148, 261 PPM IN DIET, TWA, Tumor Site: Type of Lesion: LIVER: HEPATOCELLULAR CARCINOMA", "value": "active; positive"},
      {"measurement": "carcinogen call", "setting": "Species: MOUSE, Strain/Sex: CF-1/MALE,FEMALE, Route: ORAL, Dose: 250 PPM IN DIET, Tumor Site: Type of Lesion: LIVER: HEPATOMA", "value": "active; positive"},
      {"measurement": "carcinogen call", "setting": "Species: RAT, Strain/Sex: OSBORNE-MENDEL/FEMALE, Route: ORAL, Dose: 0, 242, 462 PPM IN DIET, TWA, Dose: 0, 242, 462 PPM IN DIET, TWA", "value": "inactive; negative"},
      {"measurement": "carcinogen call", "setting": "Species: RAT, Strain/Sex: OSBORNE-MENDEL/MALE, Route: ORAL, Dose: 0, 437, 839 PPM IN DIET, TWA, Dose: 0, 437, 839 PPM IN DIET, TWA", "value": "inactive; negative"}
    ]},
    {"smiles": "COc1ccc(N)cc1N", "values": [
      {"measurement": "carcinogen call", "setting": "Species: MOUSE, Strain/Sex: B6C3F1/FEMALE, Route: ORAL, Dose: 0, 0.12, 0.24% IN DIET FOR 78 WK (STUDY DURATION: 96-97 WK), Dose: 0, 0.12, 0.24% IN DIET FOR 78 WK (STUDY DURATION: 96-97 WK), Tumor Site: Type of Lesion: THYROID GLAND: FOLLICULAR CELL ADENOMA OR CARCINOMA", "value": "active; positive"},
      {"measurement": "carcinogen call", "setting": "Species: MOUSE, Strain/Sex: B6C3F1/MALE, Route: ORAL, Dose: 0, 0.12, 0.24% IN DIET FOR 78 WK (STUDY DURATION: 96-97 WK), Dose: 0, 0.12, 0.24% IN DIET FOR 78 WK (STUDY DURATION: 96-97 WK), Tumor Site: Type of Lesion: THYROID GLAND: FOLLICULAR CELL ADENOMA", "value": "active; positive"},
      {"measurement": "carcinogen call", "setting": "Species: RAT, Strain/Sex: F344/FEMALE, Route: ORAL, Dose: 0, 0.12, 0.5% TWA, IN DIET FOR 78 WK (STUDY DURATION: 107-110 WK), Dose: 0, 0.12, 0.5% TWA, IN DIET FOR 78 WK (STUDY DURATION: 107-110 WK), Tumor Site: Type of Lesion: THYROID GLAND: ADENOCARCINOMA (NOS) OR FOLLICULAR CELL CARCINOMA OR PAPILLARY CYSTADENOCARCINOMA (NOS), EAR (ZYMBAL GLAN", "value": "active; positive"},
      {"measurement": "carcinogen call", "setting": "Species: RAT, Strain/Sex: F344/MALE, Route: ORAL, Dose: 0, 0.12, 0.5% TWA, IN DIET FOR 78 WK (STUDY DURATION: 107-109 WK), Dose: 0, 0.12, 0.5% TWA, IN DIET FOR 78 WK (STUDY DURATION: 107-109 WK), Tumor Site: Type of Lesion: THYROID GLAND: C CELL ADENOMA OR CARCINOMA, ADENOCARCINOMA (NOS), ADENOCARCINOMA (NOS) OR PAPILLARY ADENOCARCINOMA OR FO", "value": "active; positive"}
    ]},
    {"smiles": "CC(C)(C)c1cc([N+](=O)[O-])cc([N+](=O)[O-])c1OS(C)(=O)=O", "values": [
      {"measurement": "carcinogen call", "setting": "Species: RAT, Strain/Sex: SPRAGUE-DAWLEY/FEMALE, Route: ORAL, Dose: 0, 25, 100, 400 PPM IN DIET FOR 1 YR (STUDY DURATION: 1 YR), Dose: 0, 25, 100, 400 PPM IN DIET FOR 1 YR (STUDY DURATION: 1 YR)", "value": "inactive; negative"},
      {"measurement": "carcinogen call", "setting": "Species: RAT, Strain/Sex: SPRAGUE-DAWLEY/MALE, Route: ORAL, Dose: 0, 25, 100, 400 PPM IN DIET FOR 1 YR (STUDY DURATION: 1 YR), Dose: 0, 25, 100, 400 PPM IN DIET FOR 1 YR (STUDY DURATION: 1 YR)", "value": "inactive; negative"}
    ]},
    {"smiles": "CCOC(=O)c1ccccc1C(=O)OCC", "values": [
      {"measurement": "carcinogen call", "setting": "Species: MOUSE, Strain/Sex: B6C3F1/FEMALE, Route: DERMAL, Dose: 0, 7.5, 15, 30 µL/100 µL IN ACETONE 5 D/WK FOR 104-105 WK (STUDY DURATION: 104-105 WK), Dose: 0, 7.5, 15, 30 µL/100 µL IN ACETONE 5 D/WK FOR 104-105 WK (STUDY DURATION: 104-105 WK), Tumor Site: Type of Lesion: LIVER: HEPATOCELLULAR ADENOMA, HEPATOCELLULAR ADENOMA OR CARCINOMA", "value": "equivocal"},
      {"measurement": "carcinogen call", "setting": "Species: MOUSE, Strain/Sex: B6C3F1/MALE, Route: DERMAL, Dose: 0, 7.5, 15, 30 µL/100 µL IN ACETONE 5 D/WK FOR 104-105 WK (STUDY DURATION: 104-105 WK), Dose: 0, 7.5, 15, 30 µL/100 µL IN ACETONE 5 D/WK FOR 104-105 WK (STUDY DURATION: 104-105 WK), Tumor Site: Type of Lesion: LIVER: HEPATOCELLULAR ADENOMA, HEPATOCELLULAR ADENOMA OR CARCINOMA", "value": "equivocal"},
      {"measurement": "carcinogen call", "setting": "Species: RAT, Strain/Sex: F344/FEMALE, Route: DERMAL, Dose: 0, 100, 300 µL IN ACETONE 5 D/WK FOR 104 WK (STUDY DURATION: 104 WK), Dose: 0, 100, 300 µL IN ACETONE 5 D/WK FOR 104 WK (STUDY DURATION: 104 WK)", "value": "inactive; negative"},
      {"measurement": "carcinogen call", "setting": "Species: RAT, Strain/Sex: F344/MALE, Route: DERMAL, Dose: 0, 100, 300 µL IN ACETONE 5 D/WK FOR 104 WK (STUDY DURATION: 104 WK), Dose: 0, 100, 300 µL IN ACETONE 5 D/WK FOR 104 WK (STUDY DURATION: 104 WK)", "value": "inactive; negative"}
    ]},
    {"smiles": "O=Cc1ccccc1", "values": [
      {"measurement": "carcinogen call", "setting": "Species: MOUSE, Strain/Sex: B6C3F1/FEMALE, Route: GAVAGE, Dose: 0, 300, 600 MG/KG IN CORN OIL 5 D/WK FOR 103 WK (STUDY DURATION: 104 WK), Dose: 0, 300, 600 MG/KG IN CORN OIL 5 D/WK FOR 103 WK (STUDY DURATION: 104 WK), Tumor Site: Type of Lesion: FORESTOMACH: SQUAMOUS PAPILLOMA", "value": "active; positive"},
      {"measurement": "carcinogen call", "setting": "Species: MOUSE, Strain/Sex: B6C3F1/MALE, Route: GAVAGE, Dose: 0, 200, 400 MG/KG IN CORN OIL 5 D/WK FOR 104 WK (STUDY DURATION: 105 WK), Dose: 0, 200, 400 MG/KG IN CORN OIL 5 D/WK FOR 104 WK (STUDY DURATION: 105 WK), Tumor Site: Type of Lesion: FORESTOMACH: SQUAMOUS PAPILLOMA", "value": "active; positive"},
      {"measurement": "carcinogen call", "setting": "Species: RAT, Strain/Sex: F344/FEMALE, Route: GAVAGE, Dose: 0, 200, 400 MG/KG IN CORN OIL 5 D/WK FOR 103 WK (STUDY DURATION: 105 WK), Dose: 0, 200, 400 MG/KG IN CORN OIL 5 D/WK FOR 103 WK (STUDY DURATION: 105 WK)", "value": "inactive; negative"},
      {"measurement": "carcinogen call", "setting": "Species: RAT, Strain/Sex: F344/MALE, Route: GAVAGE, Dose: 0, 200, 400 MG/KG IN CORN OIL 5 D/WK FOR 103 WK (STUDY DURATION: 105 WK), Dose: 0, 200, 400 MG/KG IN CORN OIL 5 D/WK FOR 103 WK (STUDY DURATION: 105 WK)", "value": "inactive; negative"}
    ]},
    {"smiles": "O=[N+]([O-])c1c(Cl)c(Cl)c(Cl)c(Cl)c1Cl", "values": [
      {"measurement": "carcinogen call", "setting": "Species: MOUSE, Route: DERMAL, Tumor Site: Type of Lesion: INTEGUMENTARY SYSTEM (SKIN)", "value": "active; positive"},
      {"measurement": "carcinogen call", "setting": "Species: MOUSE, Route: ORAL, Tumor Site: Type of Lesion: LIVER", "value": "active; positive"},
      {"measurement": "carcinogen call", "setting": "Species: MOUSE, Strain/Sex: B6C3F1/FEMALE, Route: ORAL, Dose: 0, 4093, 8187 PPM IN DIET, TWA, Dose: 0, 4093, 8187 PPM IN DIET, TWA", "value": "inactive; negative"},
      {"measurement": "carcinogen call", "setting": "Species: MOUSE, Strain/Sex: B6C3F1/MALE, Route: ORAL, Dose: 0, 2500, 5000 PPM IN DIET FOR 103 WK (STUDY DURATION = 104 WK), Dose: 0, 2500, 5000 PPM IN DIET FOR 103 WK (STUDY DURATION = 104 WK)", "value": "inactive; negative"},
      {"measurement": "carcinogen call", "setting": "Species: MOUSE, Strain/Sex: B6C3F1/MALE, Route: ORAL, Dose: 0, 2606, 5213 PPM IN DIET, TWA, Dose: 0, 2606, 5213 PPM IN DIET, TWA", "value": "inactive; negative"},
      {"measurement": "carcinogen call", "setting": "Species: RAT, Strain/Sex: OSBORNE-MENDEL/FEMALE, Route: ORAL, Dose: 0, 7875, 14635 PPM IN DIET, TWA, Dose: 0, 7875, 14635 PPM IN DIET, TWA", "value": "inactive; negative"},
      {"measurement": "carcinogen call", "setting": "Species: RAT, Strain/Sex: OSBORNE-MENDEL/MALE, Route: ORAL, Dose: 0, 5417, 10064 PPM IN DIET, TWA, Dose: 0, 5417, 10064 PPM IN DIET, TWA", "value": "inactive; negative"}
    ]}
  ]
}
